Reference: ChEMBL document CHEMBL3885861, “Open TG-GATES”

Species: Rattus norvegicus
Test: Open TG-GATES - Regimen: Daily Repeat
Type: toxicity, organism-based, Sprague-Dawley
Parameters: regimen Daily Repeat, gender Male, age 6 weeks
Conditions: in vivo, po, route gavage; for APTT / Bas / Eos / Fbg / Hb / Ht / Lym / MCH / MCHC / MCV / Mono / Neu / PT / Plat / RBC / Ret / WBC: tissue Blood; for KIDNEY_L / KIDNEY_R / KIDNEY_TOTAL: tissue Kidney; for LIVER: tissue Liver; for A/G / ALP / ALT / AST / BUN / CRE / Ca / Cl / DBIL / GLC / IP / K / LDH / Na / PL / RALB / TBIL / TC / TG / TP / gamma-GTP: tissue Plasma
[1] = 0 mg/kg, 72 h, dose level Control, time 3 day
[2] = 0 mg/kg, […], dose level Control, time 7 day
[3] = 0 mg/kg, […], dose level Control, time 14 day
[4] = 0 mg/kg, […], dose level Control, time 28 day
[5] = 20 mg/kg, 72 h, dose level Low, time 3 day
[6] = 20 mg/kg, […], dose level Low, time 7 day
[7] = 20 mg/kg, […], dose level Low, time 14 day
[8] = 20 mg/kg, […], dose level Low, time 28 day

CCc1oc2ccccc2c1C(=O)c1cc(Br)c(O)c(Br)c1 [BENZBROMARONE]
TERMINAL_BW [1]: 230.4 g
APTT [1]: 16.2 s
Bas [1]: 0%
Eos [1]: 1.6%
Fbg [1]: 232 mg/dL
Hb [1]: 14.5 g/dL
Ht [1]: 42.7%
Lym [1]: 73%
MCH [1]: 22.5 pg
MCHC [1]: 34%
MCV [1]: 66.2 fL
Mono [1]: 6.6%
Neu [1]: 18.6%
PT [1]: 11.7 s
Plat [1]: 111.1 x10_4/uL
RBC [1]: 645.6 x10_4/ul
Ret [1]: 7.2%
WBC [1]: 113.8 x10_2/uL
KIDNEY_L [1]: 1 g
KIDNEY_R [1]: 1 g
KIDNEY_TOTAL [1]: 2 g
LIVER [1]: 11.1 g
A/G [1]: 2
ALP [1]: 921.2 IU/L
ALT [1]: 34.6 IU/L
AST [1]: 62.8 IU/L
BUN [1]: 16.4 mg/dL
CRE [1]: 0.5 mg/dL
Ca [1]: 9.9 mg/dL
Cl [1]: 106.3 meq/L
DBIL [1]: 0.008 mg/dL
GLC [1]: 197 mg/dL
IP [1]: 7.5 mg/dL
K [1]: 5.1 meq/L
LDH [1]: 84.6 IU/L
Na [1]: 139.5 meq/L
PL [1]: 156.8 mg/dL
RALB [1]: 3.9 g/dL
TBIL [1]: 0.3 mg/dL
TC [1]: 82 mg/dL
TG [1]: 106 mg/dL
TP [1]: 5.9 g/dL
gamma-GTP [1]: 0.6 IU/L
TERMINAL_BW [2]: 262.9 g
TERMINAL_BW [3]: 315 g
TERMINAL_BW [4]: 382.2 g
APTT [2]: 16.8 s
Bas [2]: 0%
Eos [2]: 1%
Fbg [2]: 236.4 mg/dL
Hb [2]: 14.5 g/dL
Ht [2]: 42.7%
Lym [2]: 80%
MCH [2]: 21.4 pg
MCHC [2]: 33.8%
MCV [2]: 63.3 fL
Mono [2]: 6.6%
Neu [2]: 12.4%
PT [2]: 11.9 s
Plat [2]: 113.2 x10_4/uL
RBC [2]: 675 x10_4/ul
Ret [2]: 5.5%
WBC [2]: 109.7 x10_2/uL
APTT [3]: 16 s
Bas [3]: 0%
Eos [3]: 1.6%
Fbg [3]: 223.8 mg/dL
Hb [3]: 14.7 g/dL
Ht [3]: 43.8%
Lym [3]: 77.4%
MCH [3]: 20.9 pg
MCHC [3]: 33.6%
MCV [3]: 62.3 fL
Mono [3]: 4.4%
Neu [3]: 16.8%
PT [3]: 11.8 s
Plat [3]: 110.7 x10_4/uL
RBC [3]: 703.4 x10_4/ul
Ret [3]: 4.7%
WBC [3]: 138.1 x10_2/uL
APTT [4]: 16.6 s
Bas [4]: 0%
Eos [4]: 1%
Fbg [4]: 230.2 mg/dL
Hb [4]: 15.5 g/dL
Ht [4]: 46.5%
Lym [4]: 83.8%
MCH [4]: 18.6 pg
MCHC [4]: 33.3%
MCV [4]: 55.9 fL
Mono [4]: 3.8%
Neu [4]: 11.4%
PT [4]: 12 s
Plat [4]: 106.6 x10_4/uL
RBC [4]: 832 x10_4/ul
Ret [4]: 2.6%
WBC [4]: 136.5 x10_2/uL
KIDNEY_L [2]: 1.1 g
KIDNEY_R [2]: 1.2 g
KIDNEY_TOTAL [2]: 2.3 g
KIDNEY_L [3]: 1.2 g
KIDNEY_R [3]: 1.2 g
KIDNEY_TOTAL [3]: 2.4 g
KIDNEY_L [4]: 1.4 g
KIDNEY_R [4]: 1.4 g
KIDNEY_TOTAL [4]: 2.9 g
LIVER [2]: 12.8 g
LIVER [3]: 13.9 g
LIVER [4]: 15.8 g
A/G [2]: 1.7
ALP [2]: 777 IU/L
ALT [2]: 31.8 IU/L
AST [2]: 60.6 IU/L
BUN [2]: 20.4 mg/dL
CRE [2]: 0.5 mg/dL
Ca [2]: 10.3 mg/dL
Cl [2]: 106.5 meq/L
DBIL [2]: 0.02 mg/dL
GLC [2]: 197.2 mg/dL
IP [2]: 7.1 mg/dL
K [2]: 5.1 meq/L
LDH [2]: 102.2 IU/L
Na [2]: 138.3 meq/L
PL [2]: 157.8 mg/dL
RALB [2]: 3.9 g/dL
TBIL [2]: 0.3 mg/dL
TC [2]: 74.4 mg/dL
TG [2]: 136.4 mg/dL
TP [2]: 6.1 g/dL
gamma-GTP [2]: 1 IU/L
A/G [3]: 1.8
ALP [3]: 712.8 IU/L
ALT [3]: 30.6 IU/L
AST [3]: 62.6 IU/L
BUN [3]: 18.2 mg/dL
CRE [3]: 0.5 mg/dL
Ca [3]: 10.2 mg/dL
Cl [3]: 108.1 meq/L
DBIL [3]: 0.008 mg/dL
GLC [3]: 187.6 mg/dL
IP [3]: 6.5 mg/dL
K [3]: 4.9 meq/L
LDH [3]: 85.6 IU/L
Na [3]: 140.1 meq/L
PL [3]: 158.6 mg/dL
RALB [3]: 3.9 g/dL
TBIL [3]: 0.3 mg/dL
TC [3]: 78.6 mg/dL
TG [3]: 139.8 mg/dL
TP [3]: 6.1 g/dL
gamma-GTP [3]: 1.2 IU/L
A/G [4]: 1.6
ALP [4]: 607.6 IU/L
ALT [4]: 28.2 IU/L
AST [4]: 58 IU/L
BUN [4]: 19.6 mg/dL
CRE [4]: 0.6 mg/dL
Ca [4]: 9.7 mg/dL
Cl [4]: 106.7 meq/L
DBIL [4]: 0.006 mg/dL
GLC [4]: 182 mg/dL
IP [4]: 6.5 mg/dL
K [4]: 4.5 meq/L
LDH [4]: 89.8 IU/L
Na [4]: 139.4 meq/L
PL [4]: 146.4 mg/dL
RALB [4]: 4 g/dL
TBIL [4]: 0.3 mg/dL
TC [4]: 70.4 mg/dL
TG [4]: 146.8 mg/dL
TP [4]: 6.4 g/dL
gamma-GTP [4]: 1.4 IU/L
TERMINAL_BW [5]: 239.2 g
APTT [5]: 16.2 s
Bas [5]: 0%
Eos [5]: 1%
Fbg [5]: 233.6 mg/dL
Hb [5]: 13.8 g/dL
Ht [5]: 41%
Lym [5]: 78.8%
MCH [5]: 22.4 pg
MCHC [5]: 33.7%
MCV [5]: 66.3 fL
Mono [5]: 7%
Neu [5]: 13.2%
PT [5]: 11.8 s
Plat [5]: 112.4 x10_4/uL
RBC [5]: 619.6 x10_4/ul
Ret [5]: 7.4%
WBC [5]: 116.5 x10_2/uL
KIDNEY_L [5]: 1.1 g
KIDNEY_R [5]: 1.1 g
KIDNEY_TOTAL [5]: 2.2 g
LIVER [5]: 12.8 g
A/G [5]: 2.1
ALP [5]: 818.8 IU/L
ALT [5]: 31.2 IU/L
AST [5]: 59.8 IU/L
BUN [5]: 18.6 mg/dL
CRE [5]: 0.6 mg/dL
Ca [5]: 10.4 mg/dL
Cl [5]: 105 meq/L
DBIL [5]: 0.008 mg/dL
GLC [5]: 189.2 mg/dL
IP [5]: 7.7 mg/dL
K [5]: 4.9 meq/L
LDH [5]: 90.2 IU/L
Na [5]: 139.5 meq/L
PL [5]: 158.8 mg/dL
RALB [5]: 4 g/dL
TBIL [5]: 0.3 mg/dL
TC [5]: 84.2 mg/dL
TG [5]: 114.2 mg/dL
TP [5]: 6 g/dL
gamma-GTP [5]: 0.8 IU/L
TERMINAL_BW [6]: 269 g
TERMINAL_BW [7]: 309.9 g
TERMINAL_BW [8]: 378.9 g
APTT [6]: 16.8 s
Bas [6]: 0%
Eos [6]: 1%
Fbg [6]: 244.4 mg/dL
Hb [6]: 14.2 g/dL
Ht [6]: 42%
Lym [6]: 79.8%
MCH [6]: 21.2 pg
MCHC [6]: 33.9%
MCV [6]: 62.6 fL
Mono [6]: 5.8%
Neu [6]: 13.4%
PT [6]: 11.9 s
Plat [6]: 113.1 x10_4/uL
RBC [6]: 670.8 x10_4/ul
Ret [6]: 5.9%
WBC [6]: 102 x10_2/uL
APTT [7]: 16.5 s
Bas [7]: 0%
Eos [7]: 1%
Fbg [7]: 228.8 mg/dL
Hb [7]: 14.4 g/dL
Ht [7]: 43.4%
Lym [7]: 81.4%
MCH [7]: 20.8 pg
MCHC [7]: 33.3%
MCV [7]: 62.5 fL
Mono [7]: 6.2%
Neu [7]: 11.2%
PT [7]: 11.7 s
Plat [7]: 104.8 x10_4/uL
RBC [7]: 694.6 x10_4/ul
Ret [7]: 4.4%
WBC [7]: 128.4 x10_2/uL
APTT [8]: 16.9 s
Bas [8]: 0%
Eos [8]: 1.4%
Fbg [8]: 223.4 mg/dL
Hb [8]: 15.4 g/dL
Ht [8]: 45.8%
Lym [8]: 85.4%
MCH [8]: 19.3 pg
MCHC [8]: 33.6%
MCV [8]: 57.6 fL
Mono [8]: 4.6%
Neu [8]: 8.6%
PT [8]: 12.1 s
Plat [8]: 101.2 x10_4/uL
RBC [8]: 795.8 x10_4/ul
Ret [8]: 2.8%
WBC [8]: 139.2 x10_2/uL
KIDNEY_L [6]: 1.2 g
KIDNEY_R [6]: 1.2 g
KIDNEY_TOTAL [6]: 2.4 g
KIDNEY_L [7]: 1.2 g
KIDNEY_R [7]: 1.3 g
KIDNEY_TOTAL [7]: 2.5 g
KIDNEY_L [8]: 1.5 g
KIDNEY_R [8]: 1.5 g
KIDNEY_TOTAL [8]: 2.9 g
LIVER [6]: 14.3 g
LIVER [7]: 15.3 g
LIVER [8]: 17.3 g
A/G [6]: 1.9
ALP [6]: 819.4 IU/L
ALT [6]: 34.6 IU/L
AST [6]: 61.8 IU/L
BUN [6]: 20 mg/dL
CRE [6]: 0.6 mg/dL
Ca [6]: 10.4 mg/dL
Cl [6]: 107.9 meq/L
DBIL [6]: 0.008 mg/dL
GLC [6]: 187.8 mg/dL
IP [6]: 7.9 mg/dL
K [6]: 4.9 meq/L
LDH [6]: 92 IU/L
Na [6]: 138.5 meq/L
PL [6]: 163.8 mg/dL
RALB [6]: 4 g/dL
TBIL [6]: 0.3 mg/dL
TC [6]: 82 mg/dL
TG [6]: 139.6 mg/dL
TP [6]: 6.2 g/dL
gamma-GTP [6]: 1 IU/L
A/G [7]: 1.8
ALP [7]: 708.6 IU/L
ALT [7]: 29.4 IU/L
AST [7]: 57.2 IU/L
BUN [7]: 19.6 mg/dL
CRE [7]: 0.6 mg/dL
Ca [7]: 10.4 mg/dL
Cl [7]: 107.5 meq/L
DBIL [7]: 0.002 mg/dL
GLC [7]: 191.8 mg/dL
IP [7]: 7.2 mg/dL
K [7]: 4.8 meq/L
LDH [7]: 88 IU/L
Na [7]: 140.3 meq/L
PL [7]: 168.2 mg/dL
RALB [7]: 4.1 g/dL
TBIL [7]: 0.3 mg/dL
TC [7]: 86 mg/dL
TG [7]: 139.4 mg/dL
TP [7]: 6.3 g/dL
gamma-GTP [7]: 2 IU/L
A/G [8]: 2
ALP [8]: 589.8 IU/L
ALT [8]: 30.6 IU/L
AST [8]: 57.4 IU/L
BUN [8]: 20.6 mg/dL
CRE [8]: 0.5 mg/dL
Ca [8]: 9.9 mg/dL
Cl [8]: 107.3 meq/L
DBIL [8]: 0.008 mg/dL
GLC [8]: 192 mg/dL
IP [8]: 6.6 mg/dL
K [8]: 4.4 meq/L
LDH [8]: 92.2 IU/L
Na [8]: 140.6 meq/L
PL [8]: 154.4 mg/dL
RALB [8]: 4.2 g/dL
TBIL [8]: 0.3 mg/dL
TC [8]: 75.6 mg/dL
TG [8]: 140 mg/dL
TP [8]: 6.4 g/dL
gamma-GTP [8]: 1.8 IU/L
